Values joined by “and” are separate entries in the source; they are usually repeats but may differ in a detail not shown here. Identical values can stand only once. Like-named read-outs stand apart in the source and are kept apart here.
Key:
[1] = Disposition of [^14C]DMAE after single gavage administration, strain comparison; type: in vivo; conditions: male Sprague Dawley rats, gavage 500 mg/kg, 24 h
[2] = Incorporation of [^14C]DMAE-derived radioactivity in tissue lipids; type: in vivo, Wistar Han rats; conditions: gavage 100 mg/kg, 2 h; for Radioactivity in tissue lipids (% dose administered) / Total radioactivity in tissue lipids: male rats
[3] = Radiochemical HPLC profiling of urine after [^14C]DMAE; type: in vivo, Harlan Sprague Dawley rats
[4] = Effect of DMAE on serum choline levels and conversion of DMAE to choline; type: in vivo, Wistar Han rats; conditions: male rats, gavage 500 mg/kg [^14C]DMAE, 1 h post-dose (remained up to 12 h); pre-dose approximately 17 ng/mL
[5] = Disposition of DMAE after gavage, rats and mice summarised together; type: in vivo, Wistar Han rats and B6C3F1 mice; conditions: range over groups
[6] = female Wistar Han rats, gavage 500 mg/kg, 24 h
[7] = male Wistar Han rats, IV 10 mg/kg, 24 h

With `CN(C)CCO` [DMAE, Dimethylaminoethanol] the “% Dose Recovered, CO2” value [1] was 2.94 ± 0.230 % dose, the “% Dose Recovered, Feces” value [1] was 0.538 ± 0.335 % dose and the “% Dose Recovered, Tissues and GI Tract (includes contents)” value (“% Dose Recovered, Tissues and GI Tract” below) [1] was 34.1 ± 1.80 % dose. The “% Dose Recovered, Total Recovered” value [1] was 98.3 ± 3.50 % dose, the “% Dose Recovered, Urine” value [1] was 60.4 ± 3.80 % dose and the “% Dose Recovered, VOCs” value [1] was 0.220 ± 0.047 % dose. The “highest level of radioactivity incorporated into lipids in any tissues” value ([2]; male Wistar Han rats) was ~ 1 % of the administered dose, the “Radioactivity in tissue lipids (% dose administered)” value ([2]; Brain, Fatty Acids) was 0.020 % dose and the “Total radioactivity in tissue lipids” value ([2]; Brain, Fatty Acids) was 34. The “Radioactivity in tissue lipids (% dose administered)” value ([2]; Brain, Neutral Lipids) was 0.075 % dose, the “Total radioactivity in tissue lipids” value ([2]; Brain, Neutral Lipids) was 107 and the “Radioactivity in tissue lipids (% dose administered)” value ([2]; Brain, Phospholipids) was 0.097 % dose. For the same molecule, the “Total radioactivity in tissue lipids” value ([2]; Brain, Phospholipids) was 167, the “Radioactivity in tissue lipids (% dose administered)” value ([2]; Heart, Fatty Acids) was 0.010 % dose and the “Total radioactivity in tissue lipids” value ([2]; Heart, Fatty Acids) was 17. For the same molecule, the “Radioactivity in tissue lipids (% dose administered)” value ([2]; Heart, Neutral Lipids) was 0.028 % dose, the “Total radioactivity in tissue lipids” value ([2]; Heart, Neutral Lipids) was 40 and the “Radioactivity in tissue lipids (% dose administered)” value ([2]; Heart, Phospholipids) was 0.188 % dose. The “Total radioactivity in tissue lipids” value ([2]; Heart, Phospholipids) was 323, the “Radioactivity in tissue lipids (% dose administered)” value ([2]; Kidney, Fatty Acids) was 0.047 % dose and the “Total radioactivity in tissue lipids” value ([2]; Kidney, Fatty Acids) was 81. The “Radioactivity in tissue lipids (% dose administered)” value ([2]; Kidney, Neutral Lipids) was 0.029 % dose, the “Total radioactivity in tissue lipids” value ([2]; Kidney, Neutral Lipids) was 41 and the “Radioactivity in tissue lipids (% dose administered)” value ([2]; Kidney, Phospholipids) was 0.771 % dose. For the same molecule, the “Total radioactivity in tissue lipids” value ([2]; Kidney, Phospholipids) was 1322, the “Radioactivity in tissue lipids (% dose administered)” value ([2]; Liver, Phospholipids) was 1.117 % dose and the “Total radioactivity in tissue lipids” value ([2]; Liver, Phospholipids) was 1915. The “Radioactivity in tissue lipids (% dose administered)” value ([2]; Lung, Fatty Acids) was 0.074 % dose, the “Total radioactivity in tissue lipids” value ([2]; Lung, Fatty Acids) was 127 and the “Radioactivity in tissue lipids (% dose administered)” value ([2]; Lung, Neutral Lipids) was 0.276 % dose. For the same molecule, the “Total radioactivity in tissue lipids” value ([2]; Lung, Neutral Lipids) was 395, the “Radioactivity in tissue lipids (% dose administered)” value ([2]; Lung, Phospholipids) was 0.926 % dose and the “Total radioactivity in tissue lipids” value ([2]; Lung, Phospholipids) was 1587. For the same molecule, the “Radioactivity in tissue lipids (% dose administered)” value ([2]; Skin, Fatty Acids) was 0.007 % dose, the “Total radioactivity in tissue lipids” value ([2]; Skin, Fatty Acids) was 12 and the “Radioactivity in tissue lipids (% dose administered)” value ([2]; Skin, Neutral Lipids) was 0.003 % dose. For the same molecule, the “Total radioactivity in tissue lipids” value ([2]; Skin, Neutral Lipids) was 4, the “Radioactivity in tissue lipids (% dose administered)” value ([2]; Skin, Phospholipids) was 0.251 % dose and the “Total radioactivity in tissue lipids” value ([2]; Skin, Phospholipids) was 430. The “Radioactivity in tissue lipids (% dose administered)” value ([2]; Spleen, Fatty Acids) was 0.004 % dose, the “Total radioactivity in tissue lipids” value ([2]; Spleen, Fatty Acids) was 7 and the “Radioactivity in tissue lipids (% dose administered)” value ([2]; Spleen, Neutral Lipids) was 0.004 % dose. The “Total radioactivity in tissue lipids” value ([2]; Spleen, Neutral Lipids) was 7, the “Radioactivity in tissue lipids (% dose administered)” value ([2]; Spleen, Phospholipids) was 0.055 % dose and the “Total radioactivity in tissue lipids” value ([2]; Spleen, Phospholipids) was 95. The “Radioactivity in tissue lipids (% dose administered)” value ([2]; Testes, Fatty Acids) was 0.013 % dose, the “Total radioactivity in tissue lipids” value ([2]; Testes, Fatty Acids) was 23 and the “Radioactivity in tissue lipids (% dose administered)” value ([2]; Testes, Neutral Lipids) was 0.008 % dose. For the same molecule, the “Total radioactivity in tissue lipids” value ([2]; Testes, Neutral Lipids) was 11, the “Radioactivity in tissue lipids (% dose administered)” value ([2]; Testes, Phospholipids) was 0.097 % dose and the “Total radioactivity in tissue lipids” value ([2]; Testes, Phospholipids) was 167. For the same molecule, the “Estimated percentage of area of DMAE peak in urine chromatogram” value (from here on “Estimated percentage”) ([3]; Rat/Female, [^14C]DMAE 500 mg/kg, Oral) was 55%, the “Estimated percentage” value ([3]; Rat/Male, [^14C]DMAE 10 mg/kg, IV) was 3% and the “Estimated percentage” value ([3]; Rat/Male, [^14C]DMAE 10 mg/kg, Oral) was 95%. The “Estimated percentage” value ([3]; Rat/Male, [^14C]DMAE 100 mg/kg, Oral) was 56%, the “Estimated percentage” value ([3]; Rat/Male, [^14C]DMAE 500 mg/kg, Oral) was 34% and the “mean serum choline level” value [4] was about 23 ng/mL. For the same molecule, the “excreted as exhaled CO2” value [5] was 3–22%, the excreted in urine [5] was 16–69% and the tissue retention [5] was 21–44%. For the same molecule, the “administered dose recovered in tissues (excluding GI tract)” value (Wistar Han rats, oral, 24 h post-exposure, range over groups) was 21–29%, the “% Dose Recovered, Feces” value [6] was 0.549 ± 0.147 % dose and the “% Dose Recovered, Tissues and GI Tract” value [6] was 27.4 ± 1.40 % dose. For the same molecule, the “% Dose Recovered, Total Recovered” value [6] was 98.4 ± 0.800 % dose, the “% Dose Recovered, VOCs” value [6] was 0.818 ± 0.456 % dose and the “% Dose Recovered, CO2” value (female Wistar Han rats, gavage 500 mg/kg, 24 h, listed as [^14C]DMAE, 500 mg/kg) was 6.09 ± 0.810 % dose. The “% Dose Recovered, CO2” value [7] was 3.52 ± 0.780 % dose, the “% Dose Recovered, Feces” value [7] was 0.330 ± 0.092 % dose and the “% Dose Recovered, Tissues and GI Tract” value [7] was 38.5 ± 2.30 % dose. The “% Dose Recovered, VOCs” value [7] was 0.230 ± 0.029 % dose, the “% Dose Recovered, Urine” value (male Wistar Han rats, IV 10 mg/kg, 24 h, 10 mg/kg) was 39 % dose and the “% Dose Recovered, Total Recovered” value (male Wistar Han rats, IV 10 mg/kg, 24 h, listed as [^14C]DMAE, 10 mg/kg) was 82 % dose and 81.8 ± 7.10 % dose.

Reference: article PMC7252906 (Toxicology and applied pharmacology, 2019)
